Reference: patent US6784201B2, “Benzothiepines having activity as inhibitors of ileal bile acid transport and taurocholate uptake” (G.D. Searle & Company, priority 1994, dated 2004)
Where a name gives a salt, the structure may show the parent alone.

Experiments:
[1] = biological target: T1, human IBAT (Homo sapiens, UniProt Q12908); assay: In vitro assay of IBAT-mediated uptake of [14C]-taurocholate (TC) in H14 cells; format: cell-based; conditions: for IC50: In Vitro Taurocholate Uptake, Table 10, read-out: Human TC IC50; for In vitro % Inhibition of TC Uptake: 50 μM
T1 construct: expressed in transfected cells; host or cells: Baby hamster kidney (BHK) cells, clone H14
T1 sequence (Q12908 1-348): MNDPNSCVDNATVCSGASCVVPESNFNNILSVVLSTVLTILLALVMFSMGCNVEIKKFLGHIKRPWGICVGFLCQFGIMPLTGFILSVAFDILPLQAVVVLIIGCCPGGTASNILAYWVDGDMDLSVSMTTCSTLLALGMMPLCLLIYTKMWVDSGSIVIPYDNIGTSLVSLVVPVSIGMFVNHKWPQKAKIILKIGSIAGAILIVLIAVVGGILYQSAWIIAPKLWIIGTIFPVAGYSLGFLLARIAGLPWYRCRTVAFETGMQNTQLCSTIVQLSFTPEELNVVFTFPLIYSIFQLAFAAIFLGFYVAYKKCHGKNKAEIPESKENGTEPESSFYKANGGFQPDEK
Summary of the method: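 BHK cells stably expressing human IBAT (H14) were incubated 2 h at 37° C with compound and 3 μM final [14C]-taurocholate in DMEM (4.5 g/L glucose) plus 0.2% fatty acid-free BSA. After cold PBS washes, cell-associated radioactivity was measured by scintillation counting.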

[2] = test system: fecal bile acid (FBA); assay: Rat gavage assay (fecal bile acid increase); format: in vivo
Protocol: Male Wister rats (275-300 g) are administered IBAT inhibitors using an oral gavage procedure. Drug or vehicle (0.2% Tween 80 in water) is administered once a day (9:00-10:0 a.m.) for 4 days at varying dosages in a final volume of 2 mL per kilogram of body weight. Total fecal samples are collected during the final 48 hours of the treatment period and analyzed for bile acid content using an enzymatic assay as described below. Compound efficacy is determined by comparison of the increase in fecal bile acid (FBA) concentration in treated rats to the mean FBA concentration of rats in the vehicle group.
Measurement of Fecal Bile Acid Concentration (FBA)
Total fecal output from individually housed hamsters was collected for 24 or 48 hours, dried under a stream of nitrogen, pulverized and weighed. Approximately 0.1 gram was weighed out and extracted into an organic solvent (butanol/water). Following separation and drying, the residue was dissolved in methanol and the amount of bile acid present was measured enzymatically using the 3α-hydroxysteroid steroid dehydrogenase reaction with bile acids to reduce NAD. (Reference: Mashige, F., et al. (1981) Clin. Chem. 27, 1352).

With `CCCCC1(CCCC)CS(=O)(=O)c2ccc(N(C)C)cc2[C@@H](c2ccc(OCc3ccc(CN(CC(=O)O)CC(=O)O)cc3)cc2)[C@H]1O` (relative stereo) [Example 1427] the IC50 [1] was 2 nM, the “Delta (micromoles fecal bile acid per day)” value ([2]; dose 2 mg/kg/day) was 36.7 micromoles fecal bile acid per day and the “Delta (micromoles fecal bile acid per day)” value ([2]; dose .016 mg/kg/day) was 13.8 micromoles fecal bile acid per day. The “Delta (micromoles fecal bile acid per day)” value ([2]; dose .08 mg/kg/day) was 27.3 micromoles fecal bile acid per day and the “Delta (micromoles fecal bile acid per day)” value ([2]; dose .4 mg/kg/day) was 35.8 micromoles fecal bile acid per day.

`CCCCC1(CCCC)CS(=O)(=O)c2ccc(N(C)C)cc2[C@@H](c2ccc(OCC(=O)NCC(=O)O)cc2)[C@H]1O` [Example 1403] was tested, and the IC50 [1] was 23 nM, the “Delta (micromoles fecal bile acid per day)” value ([2]; dose 2 mg/kg/day) was 41.6 micromoles fecal bile acid per day and the “Delta (micromoles fecal bile acid per day)” value ([2]; dose .016 mg/kg/day) was 3 micromoles fecal bile acid per day. The “Delta (micromoles fecal bile acid per day)” value ([2]; dose .08 mg/kg/day) was 11.9 micromoles fecal bile acid per day and the “Delta (micromoles fecal bile acid per day)” value ([2]; dose .4 mg/kg/day) was 35.2 micromoles fecal bile acid per day.

`CCCCC1(CCCC)CS(=O)(=O)c2ccc(N(C)C)cc2[C@@H](c2ccc(OCCCC[N+]34CCN(CC3)CC4)cc2)[C@H]1O` [Example 1408, (4R-cis)-1-[4-[4-[3,3-Dibutyl-7-(dimethylamino)-2,3,4,5-tetrahydro-4-hydroxy-1,1-dioxido-1-benzothiepin-5-yl]phenoxy]butyl]-4-aza-1-azoniabicyclo [2.2.2]octanemethanesulfonate (Salt)] showed an IC50 [1] of 1 nM.

Compound `CCCCC1(CCCC)CS(=O)(=O)c2ccc(N(C)C)cc2[C@@H](c2ccc(OCCCC[N+]34CCN(CC3)CC4)cc2)[C@H]1O` [Example 1409, (4R-cis)-1-[4-[4-[3,3-Dibutyl-7-(dimethylamino)-2,3,4,5-tetrahydro-4-hydroxy-1,1-dioxido-1-benzothiepin-5-yl]phenoxy]butyl]-4-aza-1-azoniabicyclo[2.2.2]octane-4-methylbenzenesulfonate (Salt)] has an IC50 [1] of 0.9 nM.

Compound `CCCCC1(CCCC)CS(=O)(=O)c2ccc(N(C)C)cc2[C@@H](c2ccc(OCCCCC[n+]3cccc4ccccc43)cc2)[C@H]1O` [Example 1412, (4R-cis)-1-[5-[4-[3,3-Dibutyl-7-(dimethylamino)-2,3,4,5-tetrahydro-4-hydroxy-1,1-dioxido-1-benzothiepin-5-yl]phenoxy]pentyl]quinolinium, methanesulfonate (Salt)] has an IC50 [1] of 3 nM.

In the case of `CCCCC1(CCCC)CS(=O)(=O)c2ccc(N(C)C)cc2[C@@H](c2ccc(OCc3cc[n+](C)cc3)cc2)[C@H]1O` [Example 1428, (4R-cis)-4-[[4-[3,3-Dibutyl-7-(dimethylamino)-2,3,4,5-tetrahydro-4-hydroxy-1,1-dioxido-1,1-dioxido-1-benzothiepin-5-yl]phenoxy]methyl]-1-methylpyridinium salt with trifluoroacetic acid (1:1)], the IC50 [1] is reported as 0.7 nM.

In the case of `CCCCC1(CCCC)CS(=O)(=O)c2ccc(N(C)C)cc2[C@@H](c2ccc(OCc3cccc(CN(CC(=O)O)CC(=O)O)n3)cc2)[C@H]1O` [Example 1431, (4R-cis)-N-(Carboxymethyl)-N-[[6-[[4-[3,3-dibutyl-7-(dimethylamino)-2,3,4,5-tetrahydro-4-hydroxy-1,1-dioxido-1-benzothiepin-5-yl]phenoxy]methyl]-2-pyridinyl]methyl]glycine], the IC50 [1] is reported as 5 nM.

For “cis-4-Hydroxy-5-phenyl-2,3,4,5-tetrahydro spiro(benzothiepine-3,1′-cyclohexane)-1,1-dioxide [Example 60]”, the “In vitro % Inhibition of TC Uptake” value [1] was 41%.

In the case of “trans-4-Hydroxy-5-phenyl-2,3,4,5-tetrahydro spiro(benzothiepine-3,1′-cyclohexane)-1,1-dioxide [Example 59]”, the “In vitro % Inhibition of TC Uptake” value [1] is reported as 96%.
